What follows are molecules tested on Mus musculus (assay: Protective effect against mortality induced by hypobaric hypoxia in mice by intraperitoneal (i.p.) administration.). Settings: ip.
Assay type: functional

Structure (SMILES)	ED50
N=c1sc2cc(OC(F)(F)F)ccc2n1CCN1CCN(c2ccccc2)CC1	5.5 mg/kg
N=c1sc2cc(OC(F)(F)F)ccc2n1CCCN1CCN(c2ccccc2)CC1	> 10 mg/kg
C[S+]([O-])CCn1c(=N)sc2cc(OC(F)(F)F)ccc21 (configuration not stated)	5.5 mg/kg
CSCCn1c(=N)sc2cc(OC(F)(F)F)ccc21	14 mg/kg
CN(C)CCn1c(=N)sc2cc(OC(F)(F)F)ccc21	4 mg/kg
N=c1sc2cc(OC(F)(F)F)ccc2n1CCN1CCCCC1	< 5 mg/kg
Nc1nc2ccc(OC(F)(F)F)cc2s1 [RILUZOLE]	4 mg/kg

Each molecule was assayed on Mus musculus (assay: Protective effect against mortality induced by hypobaric hypoxia in mice by intraperitoneal (i.p.) administration; Range 2.5-10). Settings: ip.
Assay type: functional

Structure (SMILES)	ED50
CS(=O)(=O)CCn1c(=N)sc2cc(OC(F)(F)F)ccc21	2.5 mg/kg
N=c1sc2cc(OC(F)(F)F)ccc2n1CCN1CC=C(c2ccccc2)CC1	2.5 mg/kg
N=c1sc2cc(OC(F)(F)F)ccc2n1CCN1CCC(c2ccccc2)CC1	2.5 mg/kg

The molecules below were run on Rattus norvegicus (assay: Tested for the protection against glutamic acid-evoked convulsions in rats by intraperitoneal administration). Settings: ip.
Assay type: functional

Structure (SMILES)	ED50
N=c1sc2cc(OC(F)(F)F)ccc2n1CCN1CCN(c2ccccc2)CC1	3.5 mg/kg
Cn1c(=N)sc2cc(OC(F)(F)F)ccc21	5 mg/kg
CCSCCn1/c(=N/C)sc2cc(OC(F)(F)F)ccc21	3.7 mg/kg
CN(CCc1ccccc1)CCn1c(=N)sc2cc(OC(F)(F)F)ccc21	5 mg/kg
N=c1sc2cc(OC(F)(F)F)ccc2n1CCO	8 mg/kg
N=c1sc2cc(OC(F)(F)F)ccc2n1CCc1ccccc1	> 10 mg/kg
Nc1nc2ccc([N+](=O)[O-])cc2s1	> 10 mg/kg
C[S+]([O-])CCCn1c(=N)sc2cc(OC(F)(F)F)ccc21 (configuration not stated)	2.3 mg/kg
N=c1sc2cc(OC(F)(F)F)ccc2n1Cc1ccccc1	> 10 mg/kg
N=c1sc2cc(OC(F)(F)F)ccc2n1CCCN1CCN(c2ccccc2)CC1	10 mg/kg
Nc1nc2cccc(OC(F)(F)F)c2s1	> 10 mg/kg
N#CCn1c(=N)sc2cc(OC(F)(F)F)ccc21	3.5 mg/kg
CCc1ccc2nc(N)sc2c1	7 mg/kg
Nc1nc2ccc(OC(F)(F)C(F)F)cc2s1	8.5 mg/kg
CCCSCCn1c(=N)sc2cc(OC(F)(F)F)ccc21	2.4 mg/kg
N=c1sc2cc(OC(F)(F)F)ccc2n1CC[S+]([O-])c1ccccc1 (configuration not stated)	4.2 mg/kg
Nc1nc2ccc(OCC(F)(F)C(F)(F)F)cc2s1	7.5 mg/kg
CCCCc1ccc2c(c1)sc(=N)n2CC[S+]([O-])CC (configuration not stated)	> 10 mg/kg
CCC(C)(C)c1ccc2nc(N)sc2c1	> 10 mg/kg
CN(CCn1c(=N)sc2cc(OC(F)(F)F)ccc21)Cc1ccccc1	7 mg/kg
Nc1ccc2nc(N)sc2c1	> 10 mg/kg
CS(=O)(=O)CCn1c(=N)sc2cc(OC(F)(F)F)ccc21	1.8 mg/kg
CN(C)S(=O)(=O)CCn1c(=N)sc2cc(OC(F)(F)F)ccc21	> 10 mg/kg

Structure (SMILES)	ED50
N=c1sc2cc(OC(F)(F)F)ccc2n1CCSc1ccccc1	4.5 mg/kg
C[S+]([O-])Cn1c(=N)sc2cc(OC(F)(F)F)ccc21 (configuration not stated)	2.3 mg/kg
N#Cc1ccc2nc(N)sc2c1	> 10 mg/kg
N=c1sc2cc(OC(F)(F)F)ccc2n1CCS	2 mg/kg
C[S+]([O-])CCn1c(=N)sc2cc(OC(F)(F)F)ccc21 (configuration not stated)	1.1 mg/kg
CC(C)(C)Oc1ccc2nc(N)sc2c1	> 10 mg/kg
CCSCCn1/c(=N/O)sc2cc(OC(F)(F)F)ccc21	> 10 mg/kg
CS(=O)(=O)c1ccc2nc(N)sc2c1	> 10 mg/kg
CS(=O)(=O)CCCn1c(=N)sc2cc(OC(F)(F)F)ccc21	5 mg/kg
N=c1sc2cc(OC(F)(F)F)ccc2n1CCS(N)(=O)=O	6 mg/kg
Nc1nc2c(OC(F)(F)F)cccc2s1	> 10 mg/kg
Nc1nc2ccc(C(F)(F)F)cc2s1	2.5 mg/kg
N=c1sc2cc(OC(F)(F)F)ccc2n1CC(=O)O	> 10 mg/kg
COC(=O)Cn1c(=N)sc2cc(OC(F)(F)F)ccc21	> 10 mg/kg
Nc1nc2cc(OC(F)(F)F)ccc2s1	> 10 mg/kg
CSCCn1c(=N)sc2cc(OC(F)(F)F)ccc21	1 mg/kg
N=c1sc2cc(OC(F)(F)F)ccc2n1CC(N)=O	7 mg/kg
CN(C)CCn1c(=N)sc2cc(OC(F)(F)F)ccc21	2.3 mg/kg
CCCc1ccc2nc(N)sc2c1	6 mg/kg
CSCCn1/c(=N/C(C)=O)sc2cc(OC(F)(F)F)ccc21	> 10 mg/kg
CCCCCc1ccc2nc(N)sc2c1	7.5 mg/kg
CCCCc1ccc2nc(N)sc2c1	4 mg/kg
CC[S+]([O-])CCn1c(=N)sc2cc(OC(F)(F)F)ccc21 (configuration not stated)	1.2 mg/kg

Structure (SMILES)	ED50
CSCCCn1c(=N)sc2cc(OC(F)(F)F)ccc21	4.2 mg/kg
CNCCn1c(=N)sc2cc(OC(F)(F)F)ccc21	> 10 mg/kg
CC(C)(C)Cc1ccc2nc(N)sc2c1	> 10 mg/kg
Nc1nc2ccc(C3CCCCC3)cc2s1	> 10 mg/kg
N=c1sc2cc(OC(F)(F)F)ccc2n1CCN1CCCCC1	2 mg/kg
N=c1sc2cc(OC(F)(F)F)ccc2n1CCN1CC=C(c2ccccc2)CC1	2.2 mg/kg
CCSCCn1c(=N)sc2cc(OC(F)(F)F)ccc21	2.2 mg/kg
CCCCn1c(=N)sc2cc(OC(F)(F)F)ccc21	10 mg/kg
Nc1nc2ccc(SC(F)(F)F)cc2s1	8 mg/kg
Nc1nc2ccc(OC(F)(F)C(F)(F)F)cc2s1	2.5 mg/kg
Nc1nc2ccc(I)cc2s1	> 10 mg/kg
CCS(=O)(=O)CCn1c(=N)sc2cc(OC(F)(F)C(F)(F)F)ccc21	2.6 mg/kg
CCCn1c(=N)sc2cc(OC(F)(F)F)ccc21	4.5 mg/kg
CCn1c(=N)sc2cc(OC(F)(F)F)ccc21	5 mg/kg
CC[S+]([O-])CCn1c(=N)sc2cc(C(F)(F)F)ccc21 (configuration not stated)	1.7 mg/kg
CCOC(=O)c1ccc2nc(N)sc2c1	> 10 mg/kg
Nc1nc2ccc(CC(F)(F)F)cc2s1	8 mg/kg
C=CCn1c(=N)sc2cc(OC(F)(F)F)ccc21	7 mg/kg
Nc1nc2ccc(C(F)(F)C(F)(F)F)cc2s1	2.5 mg/kg
C[Si](C)(C)c1ccc2nc(N)sc2c1	5 mg/kg
CC[S+]([O-])CCn1c(=N)sc2cc(C(C)(C)C)ccc21 (configuration not stated)	> 10 mg/kg
CCSCCn1/c(=N/OC)sc2cc(OC(F)(F)F)ccc21	> 10 mg/kg
N=c1sc2cc(OC(F)(F)F)ccc2n1CCN1CCC(c2ccccc2)CC1	3 mg/kg

Structure (SMILES)	ED50
CN(C)CCn1c(=N)sc2cc(C(C)(C)C)ccc21	> 10 mg/kg
CNS(=O)(=O)CCn1c(=N)sc2cc(OC(F)(F)F)ccc21	4 mg/kg
Nc1nc2ccc(-c3ccccc3)cc2s1	> 10 mg/kg
CSCCn1c(=O)sc2cc(OC(F)(F)F)ccc21	> 10 mg/kg
CC(C)c1ccc2nc(N)sc2c1	> 10 mg/kg
CSCn1c(=N)sc2cc(OC(F)(F)F)ccc21	3 mg/kg
Nc1nc2ccc(OCC(F)(F)F)cc2s1	6.5 mg/kg
CCCCCCc1ccc2nc(N)sc2c1	7 mg/kg
Nc1nc2ccc(OC(F)F)cc2s1	7.5 mg/kg
C#CCn1c(=N)sc2cc(OC(F)(F)F)ccc21	4 mg/kg
Nc1nc2ccc(C(=O)C(F)(F)F)cc2s1	> 10 mg/kg
CCCCCCCc1ccc2nc(N)sc2c1	> 10 mg/kg
CCN(CC)C(=O)Cn1c(=N)sc2cc(OC(F)(F)F)ccc21	9 mg/kg
N=c1sc2cc(OC(F)(F)F)ccc2n1CCS(=O)(=O)O	> 10 mg/kg
COc1ccc2nc(N)sc2c1	> 10 mg/kg
CN(C)CCn1c(=N)sc2ccccc21	> 10 mg/kg
CC(C)(C)c1ccc2nc(N)sc2c1	4 mg/kg
Nc1nc2ccc(Br)cc2s1	> 10 mg/kg
CC/N=c1\sc2cc(OC(F)(F)F)ccc2n1CCSC	8.5 mg/kg
CN(C)CCCn1c(=N)sc2cc(OC(F)(F)F)ccc21	9 mg/kg
CCS(=O)(=O)CCn1c(=N)sc2cc(C(F)(F)C(F)(F)F)ccc21	2.1 mg/kg
C[C@]12N[C@H](Cc3ccccc31)c1ccccc12 (racemic) [DIZOCILPINE]	2.2 mg/kg
Nc1nc2ccc(OC(F)(F)F)cc2s1 [RILUZOLE]	3.2 mg/kg

Reference: ChEMBL document CHEMBL1132316 (J Med Chem, 1999)
